Experimental data: patent US9708316B2 (BRISTOL-MYERS SQUIBB COMPANY, priority 2014, dated 2017)
Read-outs that look alike come from different tables or passages of the source.

What was measured:
[1] = target: T1, HIS-TGFβR1 T204D (Homo sapiens, UniProt P36897, T204D); assay: HTRF probe-displacement assay, HIS-TGFβR1 T204D; type: binding; conditions: read-out: TGFβR1 (μM) IC50
T1 sequence (P36897 34-503 T204D): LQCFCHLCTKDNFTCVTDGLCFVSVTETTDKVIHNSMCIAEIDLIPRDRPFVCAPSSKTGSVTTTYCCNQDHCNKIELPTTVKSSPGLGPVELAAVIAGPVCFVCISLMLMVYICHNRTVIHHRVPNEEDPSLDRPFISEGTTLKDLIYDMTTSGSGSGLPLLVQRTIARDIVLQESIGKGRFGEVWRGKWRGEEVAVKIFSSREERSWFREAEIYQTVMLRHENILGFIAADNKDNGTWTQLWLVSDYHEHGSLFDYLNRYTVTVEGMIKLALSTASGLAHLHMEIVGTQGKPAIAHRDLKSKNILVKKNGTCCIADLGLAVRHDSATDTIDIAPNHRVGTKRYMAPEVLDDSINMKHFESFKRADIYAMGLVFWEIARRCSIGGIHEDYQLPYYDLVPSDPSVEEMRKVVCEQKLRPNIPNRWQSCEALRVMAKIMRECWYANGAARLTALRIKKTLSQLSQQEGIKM

[2] = target: HIS-TGFβR2 WT (Homo sapiens, UniProt P37173); assay: HTRF probe-displacement assay, HIS-TGFβR2 WT; type: binding
HIS-TGFβR2 WT, sequence (P37173 23-567): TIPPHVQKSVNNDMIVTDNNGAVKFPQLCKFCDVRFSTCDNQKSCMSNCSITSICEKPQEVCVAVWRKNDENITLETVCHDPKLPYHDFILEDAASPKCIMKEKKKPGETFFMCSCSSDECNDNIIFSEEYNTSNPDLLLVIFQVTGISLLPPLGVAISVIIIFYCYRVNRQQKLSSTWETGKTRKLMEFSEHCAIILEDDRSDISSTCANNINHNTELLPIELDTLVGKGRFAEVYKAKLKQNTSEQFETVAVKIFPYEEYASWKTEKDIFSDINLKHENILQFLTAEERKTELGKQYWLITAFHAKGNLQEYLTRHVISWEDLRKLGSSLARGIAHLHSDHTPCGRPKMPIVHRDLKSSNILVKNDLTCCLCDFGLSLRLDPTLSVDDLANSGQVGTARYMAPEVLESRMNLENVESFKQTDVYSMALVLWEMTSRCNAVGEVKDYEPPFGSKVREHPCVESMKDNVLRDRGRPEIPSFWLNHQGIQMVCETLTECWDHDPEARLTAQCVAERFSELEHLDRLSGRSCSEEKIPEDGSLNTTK

Row | Compound | IC50 [1] [µM] | IC50 [2] [µM] | IC50 ([1]; 1 nM HIS-TGFβR1 T204D, labeled probe at Kd, 1 hour room temperature, eleven concentrations) [µM]
1 | COC(=O)Nc1cc(-c2[nH]c3cc(Cl)cnc3c2-c2ccc(F)cn2)ccn1 [Example 85, Methyl N-{4-[6-chloro-3-(5-fluoropyridin-2-yl)-1H-pyrrolo[3,2-b]pyridin-2-yl]pyridin-2-yl}carbamate] | 0.01 | 4.05 | 
2 | CC(=O)Nc1cc(-c2[nH]c3c(Cl)ccnc3c2-c2cccc(F)n2)ccn1 [Example 64, N-{4-[7-Chloro-3-(6-fluoropyridin-2-yl)-1H-pyrrolo[3,2-b]pyridin-2-yl]pyridin-2-yl}acetamide] | 0.009 | 0.3 | 
3 | CC(=O)Nc1cc(-c2[nH]c3c(C#N)ccnc3c2-c2nc(C)cs2)ccn1 [Example 240, N-(4-(7-Cyano-3-(4-methylthiazol-2-yl)-1H-pyrrolo[3,2-b]pyridin-2-yl)pyridin-2-yl)acetamide] | 0.594 | > 15 | 
4 | CCOc1cccc(-c2c(-c3ccnc(NC(C)=O)c3)[nH]c3cc(Cl)cnc23)n1 [Example 256, N-(4-(6-Chloro-3-(6-ethoxypyridin-2-yl)-1H-pyrrolo[3,2-b]pyridin-2-yl)pyridin-2-yl)acetamide] | 0.02 | > 15 | 
5 | COCCCc1ccnc2c(-c3cccc(C(F)F)n3)c(-c3ccnc(NC(C)=O)c3)[nH]c12 [Example 131, N-(4-{3-[6-(Difluoromethyl)pyridin-2-yl]-7-(3-methoxypropyl)-1H-pyrrolo[3,2-b]pyridin-2-yl}pyridin-2-yl)acetamide] | 0.001 | 3.84 | 
6 | COCCOc1cnc2c(-c3ccc(OC)cn3)c(-c3ccnc(NC(C)=O)c3)[nH]c2c1 [Example 95, N-(4-(6-(2-Methoxyethoxy)-3-(5-methoxypyridin-2-yl)-1H-pyrrolo[3,2-b]pyridin-2-yl)pyridin-2-yl)acetamide] | 0.002 | > 15 | 
7 | CC(=O)Nc1cc(-c2[nH]c3cccnc3c2-c2cnc(F)c(C)c2)ccn1 [Example 11, N-{4-[3-(6-Fluoro-5-methylpyridin-3-yl)-1H-pyrrolo[3,2-b]pyridin-2-yl]pyridin-2-yl}acetamide] | 0.027 | 0.009 | 
8 | CC(=O)Nc1cc(-c2[nH]c3c(C4CCCCO4)ccnc3c2-c2cccc(C(F)F)n2)ccn1 (centres unmarked) [Example 134, N-(4-{3-[6-(Difluoromethyl)pyridin-2-yl]-7-(oxan-2-yl)-1H-pyrrolo[3,2-b]pyridin-2-yl}pyridin-2-yl)acetamide] | 0.004 | 8.66 | 
9 | COC(=O)c1cc(Cl)nc2c(-c3ccc(F)cn3)c(-c3ccnc(NC(C)=O)c3)[nH]c12 [Example 69, Methyl 5-chloro-2-(2-acetamidopyridin-4-yl)-3-(5-fluoropyridin-2-yl)-1H-pyrrolo[3,2-b]pyridine-7-carboxylate] | 0.76 | > 15 | 
10 | COc1ccc(-c2c(-c3ccnc(NC(C)=O)c3)[nH]c3cc(N4CCC(OC)CC4)cnc23)nc1 [Example 158, N-(4-(6-(4-Methoxypiperidin-1-yl)-3-(5-methoxypyridin-2-yl)-1H-pyrrolo[3,2-b]pyridin-2-yl)pyridin-2-yl)acetamide] | 0.0163 | > 15 | 
11 | CC(=O)Nc1cc(-c2[nH]c3c(C(C)O)ccnc3c2-c2cccc(F)n2)ccn1 (centres unmarked) [Example 262, N-(4-(3-(6-Fluoropyridin-2-yl)-7-(1-hydroxyethyl)-1H-pyrrolo[3,2-b]pyridin-2-yl)pyridin-2-yl)acetamide] | 0.002 | 0.267 | 
12 | CC(=O)Nc1cc(-c2[nH]c3cccnc3c2-c2cnc(F)c(F)c2)ccn1 [Example 10, N-{4-[3-(5,6-Difluoropyridin-3-yl)-1H-pyrrolo[3,2-b]pyridin-2-yl]pyridin-2-yl}acetamide] | 0.057 | 0.01 | 
13 | CC(=O)Nc1cc(-c2[nH]c3c(CN4CC(F)(F)C4)ccnc3c2-c2cccc(C(F)F)n2)ccn1 [Example 152, N-(4-{7-[(3,3-Difluoroazetidin-1-yl)methyl]-3-[6-(difluoromethyl)pyridin-2-yl]-1H-pyrrolo[3,2-b]pyridin-2-yl}pyridin-2-yl)acetamide] | 0.002 | 4.09 | 
14 | COc1ccc(-c2c(-c3ccnc(NC(C)=O)c3)[nH]c3cc(N4CC[C@H](O)[C@@H](O)C4)cnc23)nc1 [Example 166, N-(4-(6-((3S,4S)-3,4-Dihydroxypiperidin-l-yl)-3-(5-methoxypyridin-2-yl)-1H-pyrrolo[3,2-b]pyridin-2-yl)pyridin-2-yl)acetamide] | 0.0132 | > 15 | 
15 | COc1ccc(-c2c(-c3ccnc(NC(C)=O)c3)[nH]c3cc(OC)cnc23)nc1 [Example 284, N-(4-(6-Methoxy-3-(5-methoxypyridin-2-yl)-1H-pyrrolo[3,2-b]pyridin-2-yl)pyridin-2-yl)acetamide] | 0.003 | 5.22 | 
16 | CC(=O)Nc1cc(-c2c(-c3cccc(C(F)F)n3)c3ncccc3n2CC(N)=O)ccn1 [Example 114, 2-(2-(2-Acetamidopyridin-4-yl)-3-(6-(difluoromethyl)pyridin-2-yl)-1H-pyrrolo[3,2-b]pyridin-1-yl)acetamide] | 0.55 | > 15 | 
17 | COc1cnc2c(-c3nc(C)cs3)c(-c3ccnc(NC(C)=O)c3)[nH]c2c1 [Example 208, N-(4-(6-Methoxy-3-(4-methylthiazol-2-yl)-1H-pyrrolo[3,2-b]pyridin-2-yl)pyridin-2-yl)acetamide] | 0.0006 | 0.044 | 
18 | CC(=O)Nc1cc(-c2[nH]c3cccnc3c2-c2nccs2)ccn1 [Example 205, N-(4-(3-(Thiazol-2-yl)-1H-pyrrolo[3,2-b]pyridin-2-yl)pyridin-2-yl)acetamide] | 0.0029 | 0.147 | 
19 | COc1ccc(-c2c(-c3ccnc(NC(C)=O)c3)[nH]c3cc(F)cnc23)cn1 [Example 40, N-{4-[6-Fluoro-3-(6-methoxypyridin-3-yl)-1H-pyrrolo[3,2-b]pyridin-2-yl]pyridin-2-yl}acetamide] | 0.005 | 0.067 | 
20 | COc1ccc(-c2c(-c3ccnc(N)c3)[nH]c3cc(Cl)cnc23)nc1 [Example 86, 4-[6-Chloro-3-(5-methoxypyridin-2-yl)-1H-pyrrolo[3,2-b]pyridin-2-yl]pyridin-2-amine] | 0.008 | > 15 | 
21 | CNC(=O)c1cc(Cl)nc2c(-c3ccc(OC)nc3)c(-c3ccnc(NC(C)=O)c3)[nH]c12 [Example 56, 5-Chloro-2-(2-acetamidopyridin-4-yl)-3-(6-methoxypyridin-3-yl)-N-methyl-1H-pyrrolo[3,2-b]pyridine-7-carboxamide] | 0.017 | 1.1 | 
22 | COc1ccc(-c2c(-c3ccnc(NC(=O)CN4CCN(C)CC4)c3)[nH]c3cc(Cl)cnc23)nc1C [Example 238, N-(4-(6-Chloro-3-(5-methoxy-6-methylpyridin-2-yl)-1H-pyrrolo[3,2-b]pyridin-2-yl)pyridin-2-yl)-2-(4-methylpiperazin-1-yl)acetamide] | 0.0882 | > 15 | 
23 | COc1ccc(-c2c(-c3ccnc(NC(C)=O)c3)[nH]c3c(Cl)ccnc23)cn1 [Example 271, N-(4-(7-Chloro-3-(6-methoxypyridin-3-yl)-1H-pyrrolo[3,2-b]pyridin-2-yl)pyridin-2-yl)acetamide] | 0.002 | 0.352 | 
24 | CN(C)C1CCN(CC(=O)Nc2cc(-c3[nH]c4cc(Cl)cnc4c3-c3ccc(F)cn3)ccn2)CC1 [Example 245, N-(4-(6-Chloro-3-(5-fluoropyridin-2-yl)-1H-pyrrolo[3,2-b]pyridin-2-yl)pyridin-2-yl)-2-(4-(dimethylamino)piperidin-1-yl)acetamide] | 0.002 | 4.07 | 
25 | CC(=O)Nc1cc(-c2[nH]c3cc(Cl)cnc3c2-c2cccc(F)n2)ccn1 [Example 45, N-{4-[6-Chloro-3-(6-fluoropyridin-2-yl)-1H-pyrrolo[3,2-b]pyridin-2-yl]pyridin-2-yl}acetamide] | 0.003 | 0.11 | 
26 | CC(=O)Nc1cc(-c2[nH]c3c(-c4ccnn4C)ccnc3c2-c2cccc(C(F)F)n2)ccn1 [Example 129, N-(4-{3-[6-(Difluoromethyl)pyridin-2-yl]-7-(1-methyl-1H-pyrazol-5-yl)-1H-pyrrolo[3,2-b]pyridin-2-yl}pyridin-2-yl)acetamide] | 0.007 | > 15 | 
27 | CC(=O)Nc1cc(-c2[nH]c3c(CO)ccnc3c2-c2ccc(Cl)nc2)ccn1 [Example 278, N-(4-(3-(6-Chloropyridin-3-yl)-7-(hydroxymethyl)-1H-pyrrolo[3,2-b]pyridin-2-yl)pyridin-2-yl)acetamide] | 0.011 | 0.709 | 
28 | CC(=O)Nc1cc(-c2[nH]c3c(CO)ccnc3c2-c2cccc(F)n2)ccn1 [Example 275, N-(4-(3-(6-Fluoropyridin-2-yl)-7-(hydroxymethyl)-1H-pyrrolo[3,2-b]pyridin-2-yl)pyridin-2-yl)acetamide] | 0.003 | 0.637 | 
29 | COc1ccc(-c2c(-c3ccnc(NC(C)=O)c3)[nH]c3cc(Cl)cnc23)nc1C [Example 170, N-(4-(6-Chloro-3-(5-methoxy-6-methylpyridin-2-yl)-1H-pyrrolo[3,2-b]pyridin-2-yl)pyridin-2-yl)acetamide] | 0.032 | > 15 | 
30 | [2H]C([2H])([2H])Oc1ccc(-c2c(-c3ccnc(NC(C)=O)c3)[nH]c3cc(F)cnc23)nc1 [Example 106, N-(4-(6-Fluoro-3-(5-(methoxy-d3)pyridin-2-yl)-1H-pyrrolo[3,2-b]pyridin-2-yl)pyridin-2-yl)acetamide] |  |  | 0.003
